The compounds below were run against Keap1 (Homo sapiens (Human), UniProt Q14145) (assay: HEK293 ARE luciferase assay). Conditions: HEK-293 ARE firefly luciferase transiently transfected cells; 18 h incubation; mean of 1 to 20 individual measurements.
Format: cell-based
In short: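 Transiently transfected HEK-293 ARE firefly luciferase cells (10,000/well, DMEM with 10% FCS) exposed to compound, 10-point curve from 100 μM top, 0.3% DMSO, 18 h at 37 °C. SteadyGlo luminescence; activity normalised to 30 μM tBHQ (stimulator) and DMSO (neutral), activity threshold 50; means of 1-20 measurements.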

Keap1, sequence (Q14145 whole entry): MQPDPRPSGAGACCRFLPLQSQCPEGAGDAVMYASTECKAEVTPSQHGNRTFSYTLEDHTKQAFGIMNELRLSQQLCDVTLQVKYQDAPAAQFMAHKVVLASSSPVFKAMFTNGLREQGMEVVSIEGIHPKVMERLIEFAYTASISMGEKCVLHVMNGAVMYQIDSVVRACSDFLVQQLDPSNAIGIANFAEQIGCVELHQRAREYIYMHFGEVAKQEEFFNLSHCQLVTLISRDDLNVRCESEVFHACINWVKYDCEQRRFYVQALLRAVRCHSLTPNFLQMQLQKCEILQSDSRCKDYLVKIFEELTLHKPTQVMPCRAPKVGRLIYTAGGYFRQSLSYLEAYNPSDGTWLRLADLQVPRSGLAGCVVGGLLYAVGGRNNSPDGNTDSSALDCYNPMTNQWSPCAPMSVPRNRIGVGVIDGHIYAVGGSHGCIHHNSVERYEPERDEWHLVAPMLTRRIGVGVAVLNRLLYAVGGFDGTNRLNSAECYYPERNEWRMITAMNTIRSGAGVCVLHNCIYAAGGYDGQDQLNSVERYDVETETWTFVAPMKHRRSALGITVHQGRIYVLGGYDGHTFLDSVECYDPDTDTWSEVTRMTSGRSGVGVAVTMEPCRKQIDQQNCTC

| Structure (SMILES) | EC50 |
| --- | --- |
| COC1(c2ncc(F)cc2-c2ccnc(C)c2)C=C(C#N)C(=O)C(C)(C)C1 (centres unmarked) [Compound 170, 3-(5-fluoro-2′-methyl[3,4′-bipyridin]-2-yl)-3-methoxy-5,5-dimethyl-6-oxocyclohex-1-ene-1-carbonitrile] | 12 nM |
| COC1(c2ncc(F)cc2-c2ccc(F)cc2)C=C(C#N)C(=O)C(C)(C)C1 (single isomer, unassigned) [Compound 70, 3-[5-fluoro-3-(4-fluorophenyl)pyridin-2-yl]-3-methoxy-5,5-dimethyl-6-oxocyclohex-1-ene-1-carbonitrile] | 15 nM |
| COC1(c2ncc(F)cc2-c2cc[nH]c(=O)c2)C=C(C#N)C(=O)C(C)(C)C1 (centres unmarked) [Compound 192, 3-(5-fluoro-2′-oxo[1′,2′-dihydro[3,4′-bipyridine]]-2-yl)-3-methoxy-5,5-dimethyl-6-oxocyclohex-1-ene-1-carbonitrile] | > 10000 nM |
| COC1(c2cccc(-c3nccs3)n2)C=C(C#N)C(=O)C(C)(C)C1 (centres unmarked) [Compound 125, 3-methoxy-5,5-dimethyl-6-oxo-3-[6-(1,3-thiazol-2-yl)pyridin-2-yl]cyclohex-1-ene-1-carbonitrile] | 236 nM |
| COC1(c2cccc(N3CCOCC3)n2)C=C(C#N)C(=O)C(C)(C)C1 (centres unmarked) [Compound 110, 3-methoxy-5,5-dimethyl-3-[6-(morpholin-4-yl)pyridin-2-yl]-6-oxocyclohex-1-ene-1-carbonitrile] | 109 nM |
| COC1(c2ncc(F)cc2C(F)F)C=C(C#N)C(=O)C(C)(C)C1 (centres unmarked) [Compound 152, 3-[3-(difluoromethyl)-5-fluoropyridin-2-yl]-3-methoxy-5,5-dimethyl-6-oxocyclohex-1-ene-1-carbonitrile] | 47 nM |
| COC1(c2cccc(-c3cncnc3)n2)C=C(C#N)C(=O)C(C)(C)C1 (centres unmarked) [Compound 117, 3-methoxy-5,5-dimethyl-6-oxo-3-[6-(pyrimidin-5-yl)pyridin-2-yl]cyclohex-1-ene-1-carbonitrile] | 34 nM |
| COC1(c2nccs2)C=C(C#N)C(=O)C(C)(C)C1 (single isomer, unassigned) [Compound 39, 3-methoxy-5,5-dimethyl-6-oxo-3-(thiazol-2-yl)cyclohex-1-enecarbonitrile] | 125 nM |
| COC1(c2cccc(-c3c(C)noc3C)n2)C=C(C#N)C(=O)C2(CC2)C1 (single isomer, unassigned) [Compound 52, 7-(6-(3,5-dimethylisoxazol-4-yl)pyridin-2-yl)-7-methoxy-4-oxospiro[2.5]oct-5-ene-5-carbonitrile] | 74 nM |
| COC1(c2ncccc2Cl)C=C(C#N)C(=O)C(C)(C)C1 (centres unmarked) [Compound 114, 3-(3-chloropyridin-2-yl)-3-methoxy-5,5-dimethyl-6-oxocyclohex-1-ene-1-carbonitrile] | 235 nM |
| COC1(c2ncc(F)cc2F)C=C(C#N)C(=O)C2(CC2)C1 (single isomer, unassigned) [Compound 60, 7-(3,5-difluoropyridin-2-yl)-7-methoxy-4-oxospiro[2.5]oct-5-ene-5-carbonitrile] | 153 nM |
| COC1(c2ncc(F)cc2-c2cncc(C(C)(C)C#N)c2)C=C(C#N)C(=O)C(C)(C)C1 (single isomer, unassigned) [Compound 222, 3-[5′-(2-cyanopropan-2-yl)-5-fluoro[3,3′-bipyridin]-2-yl]-3-methoxy-5,5-dimethyl-6-oxocyclohex-1-ene-1-carbonitrile] | 6 nM |
| C/C=C/c1cc(F)cnc1C1(OC)C=C(C#N)C(=O)C(C)(C)C1 (single isomer, unassigned) [Compound 94, 3-{5-fluoro-3-[(1E)-prop-1-en-1-yl]pyridin-2-yl}-3-methoxy-5,5-dimethyl-6-oxocyclohex-1-ene-1-carbonitrile] | 21 nM |
| COC1(c2ncccc2OC(F)(F)F)C=C(C#N)C(=O)C(C)(C)C1 (single isomer, unassigned) [Compound 41, 3-methoxy-5,5-dimethyl-6-oxo-3-(3-(trifluoromethoxy)py-ridin-2-yl)cyclohex-1-enecarbonitrile] | 11 nM |
| COC1(c2ncc(F)cc2-c2cc(C)nc(C)c2)C=C(C#N)C(=O)C(C)(C)C1 (centres unmarked) [Compound 173, 3-(5-fluoro-2′,6′-dimethyl[3,4′-bipyridin]-2-yl)-3-methoxy-5,5-dimethyl-6-oxocyclohex-1-ene-1-carbonitrile] | 15 nM |
| COC1(c2sc(C)nc2C)C=C(C#N)C(=O)C(C)(C)C1 (centres unmarked) [Compound 46, 3-(2,4-dimethylthiazol-5-yl)-3-methoxy-5,5-dimethyl-6-oxocyclohex-1-enecarbonitrile] | 304 nM |
| COC1(c2ncc(F)cc2-c2ccc3nccn3c2)C=C(C#N)C(=O)C(C)(C)C1 (single isomer, unassigned) [Compound 226, 3-[5-fluoro-3-(imidazo[1,2-a]pyridin-6-yl)pyridin-2-yl]-3-methoxy-5,5-dimethyl-6-oxocyclohex-1-ene-1-carbonitrile] | 13 nM |
| COC1(c2ncc(F)cc2-c2ccnc(C)c2C)C=C(C#N)C(=O)C(C)(C)C1 (centres unmarked) [Compound 175, 3-(5-fluoro-2′,3′-dimethyl[3,4′-bipyridin]-2-yl)-3-methoxy-5,5-dimethyl-6-oxocyclohex-1-ene-1-carbonitrile] | 174 nM |

| Structure (SMILES) | EC50 |
| --- | --- |
| COC1(c2ncc(F)cc2-c2ccn3nc(C)nc3c2)C=C(C#N)C(=O)C(C)(C)C1 (single isomer, unassigned) [Compound 229, 3-[5-fluoro-3-(2-methyl[1,2,4]triazolo[1,5-a]pyridin-7-yl)pyridin-2-yl]-3-methoxy-5,5-dimethyl-6-oxocyclohex-1-ene-1-carbonitrile] | 10 nM |
| COC1CN(c2cccc(C3(OC)C=C(C#N)C(=O)C(C)(C)C3)n2)C1 (centres unmarked) [Compound 8, 3-methoxy-3-[6-(3-methoxyazetidin-1-yl)-2-pyridyl]-5,5-dimethyl-6-oxo-cyclohexene-1-carbonitrile] | 186 nM |
| COC1(c2ncc(Cl)cc2C(F)F)C=C(C#N)C(=O)C(C)(C)C1 (single isomer, unassigned) [Compound 45, 3-(5-chloro-3-(difluoromethyl)py-ridin-2-yl)-3-methoxy-5,5-dimethyl-6-oxocyclohex-1-enecarbonitrile] | 28 nM |
| C/C=C/c1cc(F)cnc1C1(OC)C=C(C#N)C(=O)C(C)(C)C1 (centres unmarked) [Compound 176, 3-{5-fluoro-3-[(1E)-prop-1-en-1-yl]pyridin-2-yl}-3-methoxy-5,5-dimethyl-6-oxocyclohex-1-ene-1-carbonitrile] | 19 nM |
| COC1(c2cccc(C3CC3)n2)C=C(C#N)C(=O)C(C)(C)C1 (centres unmarked) [Compound 109, 3-(6-cyclopropylpyridin-2-yl)-3-methoxy-5,5-dimethyl-6-oxocyclohex-1-ene-1-carbonitrile] | 185 nM |
| COC1(c2ncc(Cl)cc2C(F)F)C=C(C#N)C(=O)C(C)(C)C1 (single isomer, unassigned) [Compound 206, 3-[5-chloro-3-(difluoromethyl)pyridin-2-yl]-3-methoxy-5,5-dimethyl-6-oxocyclohex-1-ene-1-carbonitrile] | 159 nM |
| COC1(c2ncc(F)cc2-c2ccc3ncnn3c2)C=C(C#N)C(=O)C(C)(C)C1 (single isomer, unassigned) [Compound 212, 3-[5-fluoro-3-([1,2,4]triazolo[1,5-a]pyridin-6-yl)pyridin-2-yl]-3-methoxy-5,5-dimethyl-6-oxocyclohex-1-ene-1-carbonitrile] | 7 nM |
| CC#Cc1cccc(C2(OC)C=C(C#N)C(=O)C(C)(C)C2)n1 (centres unmarked) [Compound 103, 3-Methoxy-5,5-dimethyl-6-oxo-3-(6-(prop-1-ynyl)pyridin-2-yl)cyclohex-1-enecarbonitrile] | 77 nM |
| COC1(c2ncc(F)cc2C(F)(F)F)C=C(C#N)C(=O)C(C)(C)C1 (single isomer, unassigned) [Compound 26, 3-(5-fluoro-3-(trifluoromethyl)py-ridin-2-yl)-3-methoxy-5,5-dimethyl-6-oxocyclohex-1-enecarbonitrile] | 24 nM |
| COC1(c2ncc(F)cc2-c2cnn(C3CCCC3)c2)C=C(C#N)C(=O)C(C)(C)C1 (centres unmarked) [Compound 180, 3-[3-(1-cyclopentyl-1H-pyrazol-4-yl)-5-fluoropyridin-2-yl]-3-methoxy-5,5-dimethyl-6-oxocyclohex-1-ene-1-carbonitrile] | 115 nM |
| COC1(c2ncc(Cl)cc2C(F)F)C=C(C#N)C(=O)C2(CC2)C1 (single isomer, unassigned) [Compound 238, 7-[5-chloro-3-(difluoromethyl)pyridin-2-yl]-7-methoxy-4-oxospiro[2.5]oct-5-ene-5-carbonitrile] | 44 nM |
| COC1(c2ccccc2C(F)(F)F)C=C(C#N)C(=O)C(C)(C)C1 (centres unmarked) [Compound 19, 3-methoxy-5,5-dimethyl-6-oxo-3-[2-(trifluoromethyl)phenyl]cyclohexene-1-carbonitrile] | 1240 nM |
| COC1(c2ncc(F)cc2C)C=C(C#N)C(=O)C2(CCCC2)C1 (centres unmarked) [Compound 149, 9-(5-fluoro-3-methylpyridin-2-yl)-9-methoxy-6-oxospiro[4.5]dec-7-ene-7-carbonitrile] | 201 nM |
| COC1(c2ncc(C)s2)C=C(C#N)C(=O)C2(CC2)C1 (centres unmarked) [Compound 64, 7-methoxy-7-(5-methyl-1,3-thiazol-2-yl)-4-oxospiro[2.5]oct-5-ene-5-carbonitrile] | 145 nM |
| CC1(C)CC(O)(c2ncccc2C(F)F)C=C(C#N)C1=O (centres unmarked) [Compound 6, 3-[3-(difluoromethyl)-2-pyridyl]-3-hydroxy-5,5-dimethyl-6-oxo-cyclohexene-1-carbonitrile] | > 10000 nM |
| COC1(c2ncc(Cl)cc2C(F)F)C=C(C#N)C(=O)C(C)(C)C1 (centres unmarked) [Compound 158, 3-[5-chloro-3-(difluoromethyl)pyridin-2-yl]-3-methoxy-5,5-dimethyl-6-oxocyclohex-1-ene-1-carbonitrile] | 21 nM |
| COC1(c2ncc(F)cc2-c2cncc(C(F)(F)F)c2)C=C(C#N)C(=O)C(C)(C)C1 (centres unmarked) [Compound 186, 3-[5-fluoro-5′-(trifluoromethyl)[3,3′-bypyridin]-2-yl]-3-methoxy-5,5-dimethyl-6-oxocyclohex-1-ene-1-carbonitrile] | 75 nM |

Reference: patent US11479539B2, “Small molecule modulators of the BTB domain of Keap1” (MedImmune Limited, priority 2017, dated 2022)
